The source of these data is patent publication US7442373B2 (priority 2003, dated 2008).

Experiment [1] deals with Bacillus anthracis spores. Set-up: species or system Hartley guinea pigs. Conditions: guinea pig, in vivo.
In experiment [2] the test system is Bacillus anthracis Ames. Further details: species or system Swiss-Webster mice. Conditions: mouse, in vivo.

Consider `O=C(O)c1cn(C2CC2)c2cc(N3CCNCC3)c(F)cc2c1=O` [ciprofloxacin], for which, in experiment [1], the ED50 dose turned out to be 3 mg/day and the “protection at low dose 1.12 mg/day” value is reported as “non-protective”.

With AVP-21D9, the animals protected in experiment [2] worked out at 40%. The “protection, antibody alone” value in experiment [1] (ip) is “provided protection and delayed the mean time of death”.
